Values after ≈ are worked out from the molar mass of the structure shown.
How the values were obtained:
[1] = tested on: insulated cavy trachea (ICT); conditions: ICT contracted with hystamine (1 μM); relaxation; cited from earlier work
[2] = tested on: H. pylori NTCT 11637; conditions: strain NTCT 11637; cited from earlier work
[3] = tested on: H. pylori ATCC 43504; conditions: strain ATCC 43504; cited from earlier work
[4] = tested on: H. pylori NTCT 11916; conditions: strain NTCT 11916; cited from earlier work
[5] = tested on: fibrosarcoma (line HT-1080); conditions: HT1080 fibrosarcoma cells; cited from earlier work
[6] = tested on: uterus colon carcinoma (line L5-26); conditions: L5-26 colon cells; cited from earlier work
[7] = Hepatocytes; read-out: Hepatoprotection Effect IC50 μM (Hepatocytes); cited from earlier work
[8] = cited from earlier work
[9] = tested on: Staphylococcus aureus; assay: Antibacterial activity, inhibition halos in culture; format: cell-based; conditions: for Antibacterial activty, inhibition halo: Staphylococcus aureus culture
Source text: (§1) The insulated compounds DCBEN, DHCA, E and mixture of E+DPB have their antibacterial properties tested in cultures of E.coli, Pseudomonas aeruginosa, Staphylococcus aureus and Streptococcus faecalis. Inhibition halos (in mm) and the obtained data recorded as in FIG. 1.
(§2) Antibacterial activity of the compounds K, G1, G2 e L2 has been evaluated in cultures of E.coli, Pseudomonas aeruginosa, Staphylococcus aureus and Streptococcus faecalis. Inhibition halos have been measured (mm) and the data recorded as in FIG. 1. S.aureus, S.faecalis e E.coli, are sensitive to the tested compounds, just varying the halos, the compound G2 has the most toxity in cultures of S.aureus e S.faecalis. None of the tested compounds had effect in P.aeruginosa.

[10] = tested on: Pseudomonas aeruginosa; assay: as above; format: cell-based
Source text: as §1, §2

[11] = tested on: Streptococcus faecalis; assay: as above; format: cell-based; conditions: for Antibacterial activty, inhibition halo: Streptococcus faecalis culture
Source text: as §1, §2

[12] = tested on: Escherichia coli; assay: as above; format: cell-based; conditions: Escherichia coli culture
Source text: as §1, §2

[13] = tested on: T. cruzi trypomastigotes; assay: Effects against T. cruzi trypomastigotes cultures; format: cell-based, Trypanosoma cruzi
Method: FIG. 2 are recorded ID50 data related to trypomastigotes cultures (one of the growing stages of Trypanosoma cruzi (T.cruzi)) also to the compounds DCBEN, DHCA, E and mixture E+DPB and the effects of said compounds extracted from propolis trypomastigotes of T.cruzi (in mg/mL). […] The same result for Violet Crystal is 0.205 mg/mL, as previously mentioned. The results for insulated compounds are greater than the Violet Crystal.

Molecule	MIC (H. pylori mg/mL) NTCT 11637 [2] [mg/mL]	MIC (H. pylori mg/mL) ATCC 43504 [3] [mg/mL]	MIC (H. pylori mg/mL) NTCT 11916 [4] [mg/mL]	Antitumor activity (LD50 μg/mL) HT1080 (Fibrosarcoma) [5] [µg/mL]	Antitumor activity (LD50 μg/mL) L5-26 (Colon) [6] [µg/mL]	IC50 [7] [µM]	also measured
2-[1-hydroxymethyl]vinyl-6-acetyl-5-hydroxy-coumaran							Emax, tension [1]: 1.06 ± 0.09 g
CC(C)=CCc1cc(/C=C/C(=O)O)cc2c1OC(C)(C)C(O)C2 (stereo not drawn) [Compound 1]	0.13 (≈ 0.411 mM)	0.25 (≈ 0.79 mM)	0.25 (≈ 0.79 mM)	71.53	77.07		
CC(C)=CCc1cc(/C=C/C(=O)O)cc2c1OC(C)(C)C=C2 [Compound 2]	0.50 (≈ 1.68 mM)	1.00 (≈ 3.35 mM)	0.50 (≈ 1.68 mM)	46.86	50.22	88.1	
CC1(C)C=Cc2cc(/C=C/C(=O)O)ccc2O1 [Compound 3]	>1	>1	>1	>100	>100		
CC1(C)C=Cc2cc(C(=O)O)ccc2O1 [Compound 4]				>100	>100		
CC(C)=CCc1cc(/C=C/C(=O)O)cc(CC=C(C)C)c1O [Compound 5]	>1	>1	>1	45.47	59.32		Antioxidant Activity (DPPH) [8]: 5.6 µg/mL
CC(C)=CCc1cc(/C=C/C(=O)O)ccc1OC(=O)CCc1ccccc1 [Compound 6]	0.25 (≈ 0.686 mM)	0.50 (≈ 1.37 mM)	0.50 (≈ 1.37 mM)	25.94	77.90	26.9	
CC(C)=CCc1cc(/C=C/C(=O)O)ccc1O [Compound 7]	>1	>1	>1	>100	>100	34.6	
COc1cc(/C=C/C=O)ccc1O [Compound 9]	>1	>1	>1	4.05	10.44	45.8	Antioxidant Activity (DPPH) [8]: 11.1 µg/mL
C=C(C)[C@H]1Cc2cc(C(C)=O)ccc2O1 [Compound 16]				57.40	58.09		
C=C(CO)[C@H]1Cc2cc(O)c(C(C)=O)cc2O1 [Compound 17]	>1	>1	>1	45.48	57.15		
C=C(COC(C)=O)[C@H]1Cc2cc(O)c(C(C)=O)cc2O1 [Compound 18]	1.0 (≈ 3.62 mM)	1.0 (≈ 3.62 mM)	1.0 (≈ 3.62 mM)	>100	>100		
COc1ccc(-c2oc3cc(O)cc(O)c3c(=O)c2O)cc1 [Compound 22]	1.0 (≈ 3.33 mM)	>1	1.0 (≈ 3.33 mM)	26.97	70.98	22	
CC(C)=CCc1cc(/C=C/C(=O)O)cc(C/C=C(\C)COC(=O)CCc2ccccc2)c1O [Compound 24]	0.13 (≈ 0.29 mM)	0.25 (≈ 0.557 mM)	0.25 (≈ 0.557 mM)	>100	>100	15.2	Antioxidant Activity (DPPH) [8]: 12.2 µg/mL
C=C(C)C1Cc2cc(/C=C/C(=O)O)cc(CC=C(C)C)c2O1 (stereo not drawn) [Compound 25]	0.25 (≈ 0.838 mM)	0.13 (≈ 0.436 mM)	0.13 (≈ 0.436 mM)	>100	>100		Antioxidant Activity (DPPH) [8]: 15.0 µg/mL
COc1cc([C@@H]2OC=C(c3cc4cc(O)c(C(C)=O)cc4o3)C[C@H]2COC(C)=O)ccc1O [Compound 26]	>1	>1	>1	13.9	12.4	63.5	Antioxidant Activity (DPPH) [8]: 29.1 µg/mL
COc1cc([C@@H]2c3c(oc4cc(C(C)=O)c(O)cc34)C(=O)C[C@H]2COC(C)=O)ccc1O [Compound 27]	>1	>1	>1	43.2	13.7	15	Antioxidant Activity (DPPH) [8]: 30.1 µg/mL
COc1cc(C=O)ccc1O [Compound G1]							Antibacterial activty, inhibition halo [9]: + (+ halo < or = to 8 mm); Antibacterial activty, inhibition halo [10]: Ø; Antibacterial activty, inhibition halo [11]: + (+ halo < or = to 8 mm); Antibacterial activty, inhibition halo [12]: + (+ halo < or = to 8 mm)
COc1cc(C=CC=O)ccc1O [Compound G2, 3-methoxy-4-hydroxycinnamaldehyde]							Antibacterial effect in words ([9]; S.aureus culture): most toxity; Antibacterial activty, inhibition halo [9]: ++ (++ halo > or = to 8 mm and < 12 mm); Antibacterial activty, inhibition halo [10]: Ø; Antibacterial effect in words ([11]; S.faecalis culture): most toxity; Antibacterial activty, inhibition halo [11]: ++ (++ halo > or = to 8 mm and < 12 mm); Antibacterial activty, inhibition halo [12]: + (+ halo < or = to 8 mm)
CN(C)c1ccc(C(=C2C=CC(=[N+](C)C)C=C2)c2ccc(N(C)C)cc2)cc1.[Cl-] [Cristal violet, reference compound]							ID50/24 h [13]: 205 µg/mL
CC(C)=CCc1cc(C=CC(=O)O)cc2c1OC(C)(C)C=C2 [E]							Antibacterial activty, inhibition halo [9]: + (+ halo < or = to 8 mm); Antibacterial activty, inhibition halo [10]: Ø; Antibacterial activty, inhibition halo [11]: + (+ halo < or = to 8 mm); Antibacterial activty, inhibition halo [12]: + (+ halo < or = to 8 mm)
CC(C)=CCc1cc(C=CC(=O)O)ccc1O [PHCA, 3-prenyl-4-hydroxycinnamic acid]							Emax, tension [1]: 1.258 ± 84 g

From US20040126437A1, “Typing natural products” (priority 2000, published 2004)
